From patent US20110098223A1, “USE OF THE PAT NANOPEPTIDE IN THE TREATMENT OF AUTOIMMUNE DISEASES” (priority 2008, published 2011)

System: Rats of OFA (SD) strain
Experiment: Arthritis induced by Freund's adjuvant (Mycobacterium butyricum) in the rat
Assay type: in vivo
Protocol: We used the model of arthritis induced by Freund' adjuvant as described in the article of Milan et al., J Neurosci 1986; 6: 899-906. The rats are administered with Mycobacterium butyricum develop usually a severe polyarthritis which resembles to that in human. Rats of OFA (SD) strain (Oncins France Strain A) weighing approximately 200 g received an […] of a 10 mg/ml Mycobacterium butyricum solution at the articulation of the right ankle. For all the measured parameters, the rats were divided into 5 groups (8 rats/group) in the following way: • reference group: the rats received a paraffin injection instead of the solution of Mycobacterium butyricum (no induced arthritis) then receive an intraperitoneal injection of saline solution; • arthritic group+injection of saline solution; • arthritic group+intraperitoneal injection of 3 mg/kg indomethacin; the indomethacin being a NSAID classically used as reference in this kind of test; • arthritic group+intraperitoneal injection of […]; • arthritic group+intraperitoneal injection of […]. The products are administered 5 times per week during 3 weeks. At the beginning of the experimentation (day 0), one determines the initial values for the different parameters (volume of the leg, macroscopic clinical score, sedimentation test and hypersensitivity). During the experiment, several parameters are measured: • the volume of the leg (“paw latency duration”); • the globular sedimentation test (“Erythrocyte Sedimentation rate”); • the macroscopic score: • “0” means that no sign of arthritis was detected; • “1” means that a swelling or an inflammation was detected on a leg; • “2” means that a swelling or an inflammation was detected on two legs; • “3” means that a swelling or an inflammation was detected on at lest 3 legs; • “4” means that a swelling or an inflammation was detected on the 4 legs. • hypersensitivity according to the plantar test: carried out according to Yukinori Nagakura and al, Allodynia and hyperalgesia in adjuvant-induced arthritic rats: time course of progression and efficacy of analgesics, JPET 306: 490-497, 2003, or in Andersen M L and al “Evaluation of acute and chronic treatments with Harpagophytum procumbens one Freund's adjuvant-induced arthritis in rats”. J. Ethnopharmacol. 2004 April; 91 (2-3): 325-30; • the erythrocyte sedimentation rate (ESR): the increase in this one generally accompanies the clinical symptoms met in induced arthritis. The ESR is measured in the arthritic rats (at Day 21) 1 hour and 2 hours after the injection of PAT or indomethacin, according to the protocol of Mahajan S G, et al., Protective Effect of Ethanolic Extract of Seeds of Moringa will oleifera Lam. Against Inflammation Associated with Development of Arthritis in Rats. J. Immunotoxicol. 2007 January; 4 (1): 39-47.

SMILES: COc1ccc2c(c1)c(CC(=O)O)c(C)n2C(=O)c1ccc(Cl)cc1 [indomethacin]
- hypersensitivity measured by the plantar test (Day 16, PAT at the 2 doses, indomethacin, equivalent to the non-arthritic reference group, FIG. 6): very reduced
- erythrocyte sedimentation rate (ESR) (arthritic rats, Day 21, FIG. 7): reduced in a very important way
- clinical macroscopic score (compared to arthritic rats which received saline solution, until Day 21, FIG. 5): significant reduction
- volume of the leg (during the first 12 days, PAT 0.4 and 4 μg/kg i.p., indomethacin 3 mg/kg i.p., 5 times per week, FIG. 4): do not have a notable effect
- inflammation and volume of the leg (from Day 14 until Day 21, PAT 0.4 and 4 μg/kg i.p., indomethacin 3 mg/kg i.p., FIG. 4): notable reduction
